Source: patent US20250057791A1, “PROTECTION AGAINST ARTHROPOD PARASITES WITH PURINERGIC RECEPTOR (OPR) ANTAGONISTS” (priority 2021, published 2025)
Several values for one entry are separate records, joined by “and”; a condition that tells them apart may be missing. Equal values may be shown once. Blank lines part the entries; values can stand above or below the compound they belong to.

What was measured:
A. gambiae = test: Membrane feeding assay, A. gambiae; type: in vivo, Anopheles gambiae; settings: for effect on feeding on solution containing ATP, in words: 20 μM ATP, CPT at 10 μM; for ID95 in μM (±s.e.m.): feeding on 20 μM ATP in the feeding solution
Experimental: Experiments with A. gambiae and A. stephensi were made in a climate chamber at 28° C. and 80% RH during the last 6 hours of scotophase. As a sugar meal can interfere with the blood meal by reducing the number of females that feed, the sucrose solution supplied in rearing cages to mosquitoes employed for feeding experiments was reduced to 5%. […] The 5% sucrose solution was presented to mosquitoes from emergence on four 1 cm diam. cotton dental rolls (Hartmann A G, Neuhausen, Switzerland) inserted in 10 ml upturned glass vials placed in holes at each corner of the rearing cage ceiling. Cotton rolls were turned daily in vials and renewed every two days. Mosquitoes were not fed blood and were deprived of sucrose 17 to 20 hours before experiments. Thirty min before a feeding experiment, between 10-25, 6-day-old females that responded to activation by human breath were removed with a mouth aspirator from the rearing cage wall and placed in polystyrol cylinders with the floor cut out (10 cm dm×15 cm high; Semadeni, Ostermundigen, Switzerland) that served as feeding cages. Each cage was covered with mosquito netting at one end and a soft polyurethane lid at the other.
Mosquitoes were fed for 30 min using a feeding system (Hemotek®, Hemotek Ltd, Blackburn, UK) consisting of 3.5 ml stainless steel reservoirs 37 mm in diameter covered with a 60-90 μm thick silicone-impregnated membrane (Kröber and Guerin, 2007 in “Feeding assays for hard ticks”, Trends in parasitology 23, 445-449; doi 10.1016/j.pt.2007.07.010). Feeding reservoirs reached a temperature of 37° C. within 10 min and were placed on the netting of feeding cages. Mosquitoes were activated using a 200 ms pulse of pure CO2 (volume 6.25 ml) from a pressurised cylinder (Carbagas, Switzerland) using a solenoid valve that caused the CO2 level in the feeding cage to rise to at least 1,500 ppm. Between 3 and 4 sets of 10 feeding cages held in a custom-built Ertacetal® POM frame were tested per day, depending of the number of female mosquitoes available from the colony.
All compounds were tested in a mosquito feeding solution (FS) consisting of 25 mM dextrose, 25 mM NaCl buffered with 8.93 mM NaHCO3 adjusted to pH 7.4. Feeding responses of A. gambiae and A. stephensi to ATP as a function of dose were tested with between 7 to 10 feeding cages per dose. Each feeding experiment with an antagonist systematically included a treatment containing the FS as negative control along with a treatment containing the FS with […] added as positive control for A. gambiae and with […] added as positive control for A. stephensi. These positive and negative controls permitted to monitor any effect of experimental day on feeding responses as a function of dose for antagonists that were recorded over several days. […] Four to 10 cages each with 10 to 29 mosquitoes were tested per antagonist dose. […] The number of feeding cages used to test other compounds and their mixtures as feeding stimulants or as feeding inhibitors is listed on Table 6. The percentage of fed mosquitoes was estimated by visual inspection of abdominal distention that is indicative of engorgement.
Pairwise comparisons of A. gambiae electrophysiological (EP) responses to ATP and adenosine alone and combined with a given dose of PR antagonist, EP responses to ATP alone and combined with a given dose of a metal modulator, and EP responses to ATP prior to and after exposure of a sensillum to a given dose of a PR antagonist were made with a one-tailed Wilcoxon signed-rank test for data showing a non-normal distribution, with a paired Student's t-test for normally distributed data showing homogeneous variance and with a Welch's t-test for normally distributed data showing non-homogeneous variance. […]

[1] = test system: A. gambiae mouthpart ATP-sensitive receptor; test: Electrophysiological response to 200 pM ATP with PR antagonist admixed; type: cell-based, Anopheles gambiae; settings: for effect on EP response to ATP, in words: 200 pM ATP, suramin at 1 nM; for ID95 in nM (±s.e.m.): increasing doses admixed to 200 pM ATP
Experimental: The tip recording method was used to record action potentials (spikes) from sensory cells in sensilla on A. gambiae labellum lobes.
Sensilla were exposed to test compounds and PR antagonists for ca. 2-4 s and spikes were counted in the first 2 s of recordings. Up to 4 test compounds were tested on a sensillum to evaluate potential agonists, each presented at 200 pM. To study responses as a function of dose for agonists ATP, adenosine, AMP, AMP-CPP and ATP+adenosine, up to 7 recordings were made at increasing doses of agonist from the same sensillum. Unless otherwise stated, recordings were made throughout from 4 to 16 sensilla from individual 4-6-day-old females per dose of agonist, antagonist and metal ion modulator. For example, a response curve established over 6 doses of an antagonist using 8 sensilla per dose involved recording from a sensillum of 48 separate mosquitoes. A given dose of a PR antagonist or metal ion modulator was only presented once to a sensillum. Two-second recordings were imported as ASCII files into DataView software for analysis of spike amplitude. Differences in spike amplitude generated by stimulation of one 8v sensillum/female with 1 mM sucrose (n=294 spikes from 6 females) 200 pM adenosine (n=207 spikes from 7 females) and 200 pM ATP (n=192 spikes from 7 females) were compared by measuring the spike amplitude in mV between the highest point of depolarisation and the lowest point of hyperpolarisation.
Pairwise comparisons of A. gambiae electrophysiological (EP) responses to ATP and adenosine alone and combined with a given dose of PR antagonist, EP responses to ATP alone and combined with a given dose of a metal modulator, and EP responses to ATP prior to and after exposure of a sensillum to a given dose of a PR antagonist were made with a one-tailed Wilcoxon signed-rank test for data showing a non-normal distribution, with a paired Student's t-test for normally distributed data showing homogeneous variance and with a Welch's t-test for normally distributed data showing non-homogeneous variance. Effects on feeding of adding ATP, AMP-CPP, adenosine, ATP+adenosine, AMP and ADP-βS, CPT with ATP or adenosine, TMP with ATP+adenosine, TMP+CPT with ATP+adenosine to the FS for A. gambiae, and of adding PR antagonists with ATP to the FS for A. stephensi were compared using one-tailed Mann-Whitney U-test or Welch's t-test, depending on data distribution; Holm's FWEC was applied where treatment comparisons involved the same positive control. Percent feeding inhibition induced by PR antagonists in A. stephensi was calculated using Abbott's formula.
Dose-response models fitted to mosquito data were generated using the ‘drm’ command in the “drc” R package (version 2.5-12). Best fitting models (goodness of fit) and effects of dose of a compound were assessed using, respectively, ‘modelFit’ and ‘noEffect’ functions in the same R package. A 3-parameter logistic model (L3) was fitted to spike-counts recorded to increasing doses of adenosine, AMP, ATP and AMP-CPP. Spike numbers recorded in response to 200 pM ATP with increasing doses of PR antagonists added were analysed using a 4-parameter log-logistic model (LL.4) for A-317491 and spinorphin, using a 4-parameter Weibull model (W1.4) for PPADS, RB-2 and TMP, and using a 3-parameter log-logistic model (LL.3) for suramin. An L3 model was fitted to proportions of females feeding on increasing doses of ATP. Feeding rates on 20 μM ATP with increasing doses of a PR antagonist added were analysed using a 4-parameter log-logistic model (LL.4) with the median of the positive control (20 μM ATP) fixed as the upper asymptote. Response dynamics in 3-parameter models are related to the slope b, the upper asymptote, and inflexion point of the model e (the ED50 value), whereas 4 parameter models also include the lower asymptote parameter. […]

SMILES: O=C(O)c1cc(C(=O)O)c(C(=O)N(Cc2cccc(Oc3ccccc3)c2)[C@H]2CCCc3ccccc32)cc1C(=O)O [A-317491, 5-[(3-phenoxyphenyl)methyl-[(1S)-1,2,3,4-tetrahydronaphthalen-1-yl]carbamoyl]benzene-1,2,4-tricarboxylic acid]
- effect on feeding on solution containing ATP, in words (A. gambiae): inhibited feeding
- % fed mosquitoes (mean ± s.e.m.), ATP + antagonist (A. gambiae; antagonist 1 nM + 20 μM ATP): 43.71%
- effect on EP response to ATP, in words [1]: inhibited
- Mean no. of spikes per 2 s (±s.e.m.), ATP + antagonist ([1]; antagonist 0.5 nM + 200 pM ATP): 7.5 spikes per 2 s

SMILES: Nc1ncnc2c1ncn2[C@@H]1O[C@H](COP(=O)(O)OP(=O)(O)OP(=O)(O)O)[C@@H](O)[C@H]1O [ATP, Adenosine 5′-triphosphate]
- % fed mosquitoes (mean ± s.e.m.), ATP [20 μM] (A. gambiae; 20 μM ATP alone, positive control of the antagonist): 66.12% and 65.96% and 64.49% and 69.12% and 69.68% and 64.2% and 70.2% and 67.6%
- % Engorged mosquitoes (A. gambiae; 20 μM in feeding solution): 67.5 ± 2.1%
- % feeding at the ED95 (A. gambiae; 22.5 μM ATP): 68.15%
- % mosquitoes fed at the asymptote (A. gambiae; 45 μM ATP): 70.25%
- asymptote dose of feeding response (A. gambiae; dose dependent feeding): 45 µM
- ED95, feeding stimulant (A. gambiae; dose dependent feeding on feeding solution): 22500 nM

- effect on EP response to ATP, in words [1]: inhibited
SMILES: Cc1nc(C)c(C)nc1C [TMP, 2,3,5,6-tetramethylpyrazine]
- % Engorged mosquitoes (A. gambiae; 7.5 μM TMP + 20 μM ATP + 200 μM Adenosine): 36.7 ± 6.0%
- effect on feeding on solution containing ATP, in words (A. gambiae): inhibited feeding
- % fed mosquitoes (mean ± s.e.m.), ATP + antagonist (A. gambiae; antagonist 10 nM + 20 μM ATP): 50.47%
- ID95 in μM (±s.e.m.) (A. gambiae): 1.28 µM
- Mean no. of spikes per 2 s (±s.e.m.), ATP + antagonist ([1]; antagonist 10 nM + 200 pM ATP): 11.2 spikes per 2 s
- ID95 in nM (±s.e.m.) [1]: 27.50 nM

SMILES: Cc1ccc(C(=O)Nc2ccc(S(=O)(=O)O)c3cc(S(=O)(=O)O)cc(S(=O)(=O)O)c23)cc1NC(=O)c1cccc(NC(=O)Nc2cccc(C(=O)Nc3cc(C(=O)Nc4ccc(S(=O)(=O)O)c5cc(S(=O)(=O)O)cc(S(=O)(=O)O)c45)ccc3C)c2)c1 [Suramin]
- % fed mosquitoes (mean ± s.e.m.), ATP + antagonist (A. gambiae; antagonist 1 μM + 20 μM ATP): 34.86%
- ID95 in μM (±s.e.m.) (A. gambiae): 1.36 µM
- Mean no. of spikes per 2 s (±s.e.m.), ATP + antagonist ([1]; antagonist 0.6 nM + 200 pM ATP): 4.20 spikes per 2 s
- ID95 in nM (±s.e.m.) [1]: 1.15 nM
